# According to ChEMBL document CHEMBL4196107, “Antiangiogenic Activity and Chemical Derivatization of the Neurotoxic Acetogenin Annonacin Isolated from Asimina triloba” (J Nat Prod, 2018):
# Calls of active or inactive are those of the source. No cut-off for these calls is given here.
# Legend:
# [1] = tested on: Thoracic aorta; assay: Antiangiogenic activity in Sprague-Dawley rat thoracic aorta ring assessed as inhibition of microvessels outgrowth at 1 uM after 5 days; type: functional, tissue-based
# [2] = Effective permeability of the compound at pH 7.4 by PAMPA-BBB assay
# [3] = tested on: Thoracic aorta; assay: Antiangiogenic activity in Sprague-Dawley rat thoracic aorta ring assessed as inhibition of microvessels outgrowth after 5 days; type: functional, tissue-based; conditions: 120 h
# [4] = Effective permeability of the compound in PBS at 10 uM at pH 7.4 after 16 hrs by PAMPA-BBB assay
# [5] = tested on: Thoracic aorta; assay: Antiangiogenic activity in Sprague-Dawley rat thoracic aorta ring assessed as inhibition of microvessels outgrowth at 50 uM after 5 days; type: functional
structure (smiles),measurement,setting,value
CNC(=O)c1cc(Oc2ccc(NC(=O)Nc3ccc(Cl)c(C(F)(F)F)c3)cc2)ccn1,inhibition,[1],Active
CC(C)NCC(O)COc1cccc2ccccc12 (centres undefined) [PROPRANOLOL],Papp,[2],12 ×10⁻⁶ cm/s
CCCCCCCCCCCC[C@@H](O)[C@H]1CC[C@H]([C@H](O)CCCC[C@H](O)CCCCC[C@@H](O)CC2=C[C@H](C)OC2=O)O1,IC50,[3],3000 nM
same,"Papp at 16 h, 10 µM",[4],0.51 ×10⁻⁶ cm/s
CCCCCCCCCCCC[C@H](N=[N+]=[N-])[C@H]1CC[C@H]([C@H](CCCC[C@H](CCCCC[C@@H](CC2=C[C@H](C)OC2=O)N=[N+]=[N-])N=[N+]=[N-])N=[N+]=[N-])O1,inhibition at 50 µM,[5]; 120 h,40%
CN(Cc1cnc2nc(N)nc(N)c2n1)c1ccc(C(=O)N[C@@H](CCC(=O)O)C(=O)O)cc1 [METHOTREXATE],"Papp at 16 h, 10 µM",[4],0.007 ×10⁻⁶ cm/s
same,Peff,[2],0.037 ×10⁻⁶ cm/s
CCCCCCCCCCCC[C@@H](N=[N+]=[N-])[C@H]1CC[C@H]([C@@H](CCCC[C@@H](CCCCC[C@H](CC2=C[C@H](C)OC2=O)N=[N+]=[N-])N=[N+]=[N-])N=[N+]=[N-])O1,inhibition,[5],inactive
CO[C@@H]1[C@H](OC(=O)NC(=O)CCl)CC[C@]2(CO2)[C@H]1[C@@]1(C)O[C@@H]1CC=C(C)C,inhibition,[5],Active
